Measurements as given in patent US20090233938A1, “Thiazole derivatives as a2b antagonists” (priority 2004, published 2009).

Columns and labels:
[1] = biological target: T1, human adenosine A2b receptor (Homo sapiens, UniProt P29275); test: Adenosine A2b receptor reporter gene assay (luciferase, CHO-A2b cells, NECA agonist); format: cell-based; conditions: CHO cells with pCRE-LUCI and human A2b receptor; antagonist at 100 nM or 1 μM; shift of NECA concentration-response curve; KB=[antagonist]/(concentration ratio−1)
T1 construct: expressed in transfected cells; host or cells: CHO cells co-transfected with reporter plasmid pCRE-LUCI and pA2bRCV
T1 sequence (P29275 1-332): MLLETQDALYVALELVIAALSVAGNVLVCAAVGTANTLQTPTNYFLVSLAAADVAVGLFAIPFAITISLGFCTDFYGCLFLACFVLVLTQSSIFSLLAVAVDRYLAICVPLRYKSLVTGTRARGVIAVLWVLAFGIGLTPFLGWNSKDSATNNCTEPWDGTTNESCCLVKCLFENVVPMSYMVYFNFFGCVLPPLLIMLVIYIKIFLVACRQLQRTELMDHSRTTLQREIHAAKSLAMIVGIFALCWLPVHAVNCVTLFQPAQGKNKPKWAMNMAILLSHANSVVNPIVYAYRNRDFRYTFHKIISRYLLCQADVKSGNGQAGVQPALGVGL
Procedure: Adenosine A2b Receptor Reporter Gene Assay a) Culturing of Chinese Hamster Ovary (CHO) A2b Cell Line
CHO cells transfected with a Luciferase-expressing reporter plasmid (pCRE-LUCI) and with a plasmid carrying the human adenosine A2b receptor structural gene (pA2bRCV) are routinely cultured in Dulbecco's Modified Eagle Medium (DMEM)—supplemented with 10% v/v fetal calf serum (FCS), 2 mM L-glutamine, 0.4 mg/ml L-proline, 1 nM sodium selenite, 0.5 mg/ml Hygromycin B and 1 mg/ml Geneticin—at 37° C., 5% CO2 and 100% humidity. The cells are left to grow to confluence for 4-5 days. The cells obtained are passaged using trypsin/EDTA and split at a ratio of 1 in 5. […]
b) Preparation of Cells for Assay
Prior to the assay, the CHO-A2b cells are plated onto white 96-well View Plate tissue culture plates (Packard) at a density of 50,000 cells per well in 50 μl of DMEM, and the plates are incubated at 37° C., 5% CO2 and 100% humidity. […]
c) Preparation of Reference and Test Compounds
10 mM solutions of the reference compound, Xanthine Amine Cogener (XAC), and the test compound in dimethyl sulfoxide (DMSO) are prepared. The solutions are further diluted with DMSO to 100 μM, then diluted to 10 μM, and finally to 250 nM or 2.5 μM with Assay Buffer (DMEM Phenol Red-free tissue culture media supplemented with 10 μM Rolipram and 10 U/ml adenosine deaminase (ADA). The resulting solutions (40 μl) are added to the cells in the appropriate wells, the final concentration per well being 100 nM or 1 μM, and the plates are incubated at 37° C., 5% CO2 and 100% humidity. […]
d) Luciferase Reporter Gene Assay
5′-N-ethylcarboxamidoadenosine (NECA), an adenosine A2b agonist, is prepared as a […] solution in DMSO and then diluted to 100 μM with Assay Buffer. This solution is serially diluted in Assay Buffer to give a series of 10 NECA concentrations from 100 to 0.01 μM. 10 μl portions of the resulting NECA solutions are added to the mixtures of CHO-A2b cells and reference or test compound solutions prepared as described above (preincubated for 30 minutes), final concentrations ranging from […] per well. The cells are incubated at 37° C., 5% CO2 and 100% humidity for 3 hours to induce release of cAMP, which then binds to cAMP binding protein (CBP) and the resulting complex interacts with the reporter plasmid to express Luciferase. 100 μl of Steady-Glo, a Luciferase assay substrate from Promega, is added to all wells to lyse the cells and generate luminescence in proportion to the amount of Lucifrease produced. The plates are left for a minimum of 5 minutes before being read on the luminescence program of a Topcount NXT microplate scintillation counter (ex Packard). Concentration—response curves are plotted from the luminescence data using Activity base software and KB values for the antagonists under test are calculated from the shifts of the curve at a particular concentration (KB=[antagonist]/(concentration ratio−1)

Compound	Kb [1] [nM]	melting point [°C]
Cc1ccnc(Nc2nc(-c3cccc(C#N)c3)c(-c3ccncn3)s2)c1 [Example 4]	38	–
N#Cc1cccc(Nc2nc(-c3cccc(C#N)c3)c(-c3ccncn3)s2)c1 [Example 6]	29	–
N#Cc1cccc(-c2nc(Nc3ccccn3)sc2-c2ccncn2)c1 [Example 9]	6	–
COc1cccc(C(=O)Nc2nc(-c3cccc(C#N)c3)c(-c3ccncn3)s2)c1 [Example 11, N-[4-(3-Cyano-phenyl)-5-pyrimidin-4-yl-thiazol-2-yl]-3-methoxy-benzamide]	–	255 to 256
N#Cc1cccc(-c2nc(Nc3cnccn3)sc2-c2ccncn2)c1 [Example 12, 3-[2-(Pyrazin-2-ylamino)-5-pyrimidin-4-yl-thiazol-4-yl]-benzonitrile]	2	> 280
N#Cc1cccc(-c2nc(Nc3ccc(C(=O)O)cc3)sc2-c2ccnnc2)c1 [Example 15, 4-[4-(3-Cyano-phenyl)-5-pyridazin-4-yl-thiazol-2-ylamino]-benzoic acid]	–	> 275
CN(C)c1cc(-c2sc(Nc3cccc(F)c3)nc2-c2cccc(C#N)c2)cnn1 [Example 16]	50	–
